Patent publication US8471005B2 (Cephalon, Inc., priority 2008, dated 2013)
Like-named read-outs stand apart in the source and are kept apart here.

Experiments:
ALK = target: T1, ALK (Homo sapiens, UniProt Q9UM73); assay: ALK Kinase Assay (ELISA/TRF, PLC-γ substrate); type: biochemical; details: read-out: ALK Potency
T1 construct: host or cells: baculovirus expression system
In short: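 PLC-γ coat 10 μg/mL in TBS; ALK 30 ng/ml added to start; 37° C, 15 min; Eu-N1 PT66 antibody detection (TRF). IC50: % inhibition vs log10 [cpd], variable-slope sigmoidal fit.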

JAK2 = target: T2, JAK2 (Homo sapiens, UniProt O60674); assay: Recombinant Human JAK2 Kinase Assay (TRF); type: biochemical; details: read-out: JAK2 Potency
T2 construct: host or cells: baculovirus expression system
T2 sequence (O60674 whole entry): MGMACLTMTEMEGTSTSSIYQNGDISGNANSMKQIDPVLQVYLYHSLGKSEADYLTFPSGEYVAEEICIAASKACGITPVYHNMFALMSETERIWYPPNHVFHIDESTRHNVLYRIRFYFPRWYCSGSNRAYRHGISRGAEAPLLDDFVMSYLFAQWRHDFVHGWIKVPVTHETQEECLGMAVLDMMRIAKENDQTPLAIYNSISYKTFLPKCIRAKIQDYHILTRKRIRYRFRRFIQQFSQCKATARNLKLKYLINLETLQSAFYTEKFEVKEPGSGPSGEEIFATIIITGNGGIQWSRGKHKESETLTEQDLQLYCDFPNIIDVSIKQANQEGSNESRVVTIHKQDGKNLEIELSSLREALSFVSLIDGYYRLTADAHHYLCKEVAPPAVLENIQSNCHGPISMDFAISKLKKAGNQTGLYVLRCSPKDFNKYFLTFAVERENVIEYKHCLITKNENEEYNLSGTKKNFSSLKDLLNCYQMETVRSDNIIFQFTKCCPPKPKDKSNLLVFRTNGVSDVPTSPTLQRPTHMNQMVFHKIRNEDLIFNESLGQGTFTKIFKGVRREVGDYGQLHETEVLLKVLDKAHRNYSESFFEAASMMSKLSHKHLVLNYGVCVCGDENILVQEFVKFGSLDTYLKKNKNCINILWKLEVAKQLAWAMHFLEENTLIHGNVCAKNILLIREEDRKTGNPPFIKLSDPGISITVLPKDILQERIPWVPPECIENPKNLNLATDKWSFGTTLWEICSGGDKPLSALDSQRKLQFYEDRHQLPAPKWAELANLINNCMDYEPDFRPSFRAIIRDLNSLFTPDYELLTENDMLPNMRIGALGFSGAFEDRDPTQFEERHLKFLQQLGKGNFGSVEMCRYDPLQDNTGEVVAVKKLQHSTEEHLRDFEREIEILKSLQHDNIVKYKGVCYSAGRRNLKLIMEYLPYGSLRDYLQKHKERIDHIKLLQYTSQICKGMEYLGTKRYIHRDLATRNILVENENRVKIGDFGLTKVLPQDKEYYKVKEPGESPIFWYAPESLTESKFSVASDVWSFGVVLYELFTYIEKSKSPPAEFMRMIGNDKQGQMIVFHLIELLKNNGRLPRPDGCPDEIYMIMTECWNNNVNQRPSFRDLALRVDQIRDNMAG
In short: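 Baculovirus-expressed JAK2 (15 ng/ml) phosphorylated a biotinylated 15-mer peptide captured on Neutravidin-coated plates, in 20 mM HEPES pH 7.2 with 0.2 μM ATP, 1 mM MnCl2, 0.1% BSA and 2.5% DMSO. Reaction ran 20 min at room temperature; phosphopeptide was detected by time-resolved fluorescence with Eu-N1-labelled PY100 antibody.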

[1] = ALK kinase inhibition, 1 μM ATP
[2] = JAK2 kinase inhibition, 0.2 μM ATP

T1 sequence (Q9UM73 19-1620): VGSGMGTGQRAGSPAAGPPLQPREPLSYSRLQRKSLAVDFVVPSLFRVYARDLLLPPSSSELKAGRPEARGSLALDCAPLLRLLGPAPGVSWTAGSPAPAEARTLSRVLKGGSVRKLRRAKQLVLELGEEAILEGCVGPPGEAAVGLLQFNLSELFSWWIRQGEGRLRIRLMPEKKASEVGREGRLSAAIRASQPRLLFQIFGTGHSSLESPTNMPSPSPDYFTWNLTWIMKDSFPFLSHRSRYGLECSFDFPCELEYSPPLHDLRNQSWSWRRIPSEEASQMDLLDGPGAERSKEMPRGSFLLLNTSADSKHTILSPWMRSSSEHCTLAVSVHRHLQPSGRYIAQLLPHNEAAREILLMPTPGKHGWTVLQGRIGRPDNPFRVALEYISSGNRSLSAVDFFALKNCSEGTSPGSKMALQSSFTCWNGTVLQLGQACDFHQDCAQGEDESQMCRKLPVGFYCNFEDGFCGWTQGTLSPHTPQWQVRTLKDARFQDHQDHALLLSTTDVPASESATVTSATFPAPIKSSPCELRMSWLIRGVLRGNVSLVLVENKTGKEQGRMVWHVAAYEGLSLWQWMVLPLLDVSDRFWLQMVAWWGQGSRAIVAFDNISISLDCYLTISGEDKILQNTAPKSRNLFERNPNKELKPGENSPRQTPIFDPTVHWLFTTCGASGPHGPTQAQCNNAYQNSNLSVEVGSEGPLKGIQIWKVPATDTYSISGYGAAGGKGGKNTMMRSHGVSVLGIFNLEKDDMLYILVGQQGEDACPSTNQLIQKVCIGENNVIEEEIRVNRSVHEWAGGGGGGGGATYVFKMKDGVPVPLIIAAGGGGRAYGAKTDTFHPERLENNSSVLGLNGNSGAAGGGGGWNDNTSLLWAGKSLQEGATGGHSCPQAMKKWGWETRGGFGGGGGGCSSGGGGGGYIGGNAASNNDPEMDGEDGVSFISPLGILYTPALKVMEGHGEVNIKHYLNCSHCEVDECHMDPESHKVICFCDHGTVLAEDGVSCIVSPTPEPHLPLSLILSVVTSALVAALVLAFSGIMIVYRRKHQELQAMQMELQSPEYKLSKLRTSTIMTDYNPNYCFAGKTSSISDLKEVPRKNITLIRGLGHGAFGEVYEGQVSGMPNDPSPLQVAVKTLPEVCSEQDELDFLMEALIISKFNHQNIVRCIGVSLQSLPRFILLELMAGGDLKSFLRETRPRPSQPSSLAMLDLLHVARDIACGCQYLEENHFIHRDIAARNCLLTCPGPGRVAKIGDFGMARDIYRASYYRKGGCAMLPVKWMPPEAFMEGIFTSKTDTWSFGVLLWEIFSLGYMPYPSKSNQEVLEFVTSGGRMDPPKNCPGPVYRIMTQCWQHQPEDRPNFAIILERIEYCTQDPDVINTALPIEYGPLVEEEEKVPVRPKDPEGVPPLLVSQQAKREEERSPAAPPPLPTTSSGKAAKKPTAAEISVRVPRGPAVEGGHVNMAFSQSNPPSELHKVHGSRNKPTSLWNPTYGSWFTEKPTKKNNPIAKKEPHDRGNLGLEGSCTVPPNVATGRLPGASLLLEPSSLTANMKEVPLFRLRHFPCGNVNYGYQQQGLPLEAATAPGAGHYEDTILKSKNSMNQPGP

CN1CCN(c2ccc(Nc3ncc4ccc(-c5ccccc5)n4n3)cc2)CC1 [Example 7, [4-(4-Methyl-piperazin-1-yl)-phenyl]-(7-phenyl-pyrrolo[2,1-f][1,2,4]triazin-2-yl)-amine]
IC50 (ALK; ALK Kinase Inhibition): < 100 nM
IC50 (JAK2; JAK2 Kinase Inhibition): < 100 nM

COc1ccccc1-c1ccn2nc(Nc3ccc(N4CCN(C)CC4)cc3)ncc12 [Example 42, [5-(2-Methoxy-phenyl)-pyrrolo[2,1-f][1,2,4]triazin-2-yl]-[4-(4-methyl-piperazin-1-yl)-phenyl]-amine]
IC50 (ALK; ALK Kinase Inhibition): > 10000 nM
IC50 (JAK2; JAK2 Kinase Inhibition): 100 to 1000 nM

COc1cc(C2CCN(C)CC2)ccc1Nc1ncc2ccc(-c3ccccc3OC)n2n1 [Example 762, [2-Methoxy-4-(1-methyl-piperidin-4-yl)-phenyl]-[7-(2-methoxy-phenyl)-pyrrolo[2,1-f][1,2,4]triazin-2-yl]-amine]
IC50 (ALK; [1]): < 100 nM
IC50 (JAK2; [2]): < 100 nM

CN(c1ccccc1-c1ccc2cnc(Nc3ccc4c(cnn4CCN4CCOCC4)c3)nn12)S(C)(=O)=O [Example 1333, N-Methyl-N-(2-{2-[1-(2-morpholin-4-yl-ethyl)-1H-indazol-5-ylamino]-pyrrolo[2,1-f][1,2,4]triazin-7-yl}-phenyl)-methanesulfonamide]
IC50 (ALK; [1]): 100 to 1000 nM
IC50 (JAK2; [2]): < 100 nM

COc1cc(CN2CCOCC2)ccc1Nc1ncc2ccc(-c3ccccc3N(C)S(C)(=O)=O)n2n1 [Example 1221, N-{2-[2-(2-Methoxy-4-morpholin-4-ylmethyl-phenylamino)-pyrrolo[2,1-f][1,2,4]triazin-7-yl]-phenyl}-N-methyl-methanesulfonamide]
IC50 (ALK; [1]): < 100 nM
IC50 (JAK2; [2]): 1000 to 10000 nM

CCN(CC)C1CCN(c2ccc(Nc3ncc4ccc(-c5ccccc5OC)n4n3)cc2)CC1 [Example 1138, [4-(4-Diethylamino-piperidin-1-yl)-phenyl]-[7-(2-methoxy-phenyl)-pyrrolo[2,1-f][1,2,4]triazin-2-yl]-amine]
IC50 (ALK; [1]): < 100 nM
IC50 (JAK2; [2]): < 100 nM

C[C@@H](O)CN1CCN(c2ccc(Nc3ncc4ccc(-c5ccc(S(C)(=O)=O)cc5)n4n3)cc2)CC1 [Example 209, (R)-1-(4-{4-[7-(4-Methanesulfonyl-phenyl)-pyrrolo[2,1-f][1,2,4]triazin-2-ylamino]-phenyl}-piperazin-1-yl)-propan-2-ol]
IC50 (ALK; ALK Kinase Inhibition): 100 to 1000 nM
IC50 (JAK2; JAK2 Kinase Inhibition): < 100 nM

COc1cc(CCN2CCN(C)CC2)ccc1Nc1ncc2ccc(-c3ccccc3OC)n2n1 [Example 488, {2-Methoxy-4-[2-(4-methyl-piperazin-1-yl)-ethyl]-phenyl}-[7-(2-methoxy-phenyl)-pyrrolo[2,1-f][1,2,4]triazin-2-yl]-amine]
IC50 (ALK; [1]): < 100 nM
IC50 (JAK2; [2]): 100 to 1000 nM

CN(c1ccccc1-c1ccc2cnc(-n3ccnc3)nn12)S(C)(=O)=O [Example 622, N-[2-(2-Imidazol-1-yl-pyrrolo[2,1-f][1,2,4]triazin-7-yl)-phenyl]-N-methyl-methanesulfonamide]
IC50 (ALK; [1]): 1000 to 10000 nM
IC50 (JAK2; [2]): < 100 nM

CN1CCN(C(=O)c2cccc(Nc3ncc4ccc(-c5cccc(S(=O)(=O)NC(C)(C)C)c5)n4n3)c2)CC1 [Example 891, N-tert-Butyl-3-{2-[3-(4-methyl-piperazine-1-carbonyl)-phenylamino]-pyrrolo[2,1-f][1,2,4]triazin-7-yl}-benzenesulfonamide]
IC50 (ALK; [1]): 100 to 1000 nM
IC50 (JAK2; [2]): < 100 nM

[7-(3-Chloro-phenyl)-pyrrolo[2,1-f][1,2,4]triazin-2-yl]-{4-[2-(4-ethyl-piperazin-1-yl)-ethoxy]-phenyl}-amine [Example 93]
IC50 (ALK; ALK Kinase Inhibition): < 100 nM
IC50 (JAK2; JAK2 Kinase Inhibition): < 100 nM

COc1ccc(-c2ccc3cnc(Nc4ccc(CN5CCCC5)cc4)nn23)cn1 [Example 1405, [7-(6-Methoxy-pyridin-3-yl)-pyrrolo[2,1-f][1,2,4]triazin-2-yl]-(4-pyrrolidin-1-ylmethyl-phenyl)-amine]
IC50 (ALK; ALK Kinase Inhibition): 1000 to 10000 nM
IC50 (JAK2; JAK2 Kinase Inhibition): < 100 nM

COc1cc(C2CCN(CC(N)=O)CC2)ccc1Nc1ncc2c(C)cc(-c3ccccc3OC)n2n1 [Example 1262, 2-(4-{3-Methoxy-4-[7-(2-methoxy-phenyl)-5-methyl-pyrrolo[2,1-f][1,2,4]triazin-2-ylamino]-phenyl}-piperidin-1-yl)-acetamide]
IC50 (ALK; [1]): < 100 nM
IC50 (JAK2; [2]): 100 to 1000 nM

COc1cc(N2CCCC(N3CCN(C)CC3)C2)ccc1Nc1ncc2ccc(-c3ccccc3OC)n2n1 (stereo not shown) [Example 235, {2-Methoxy-4-[3-(4-methyl-piperazin-1-yl)-piperidin-1-yl]-phenyl}-[7-(2-methoxy-phenyl)-pyrrolo[2,1-f][1,2,4]triazin-2-yl]-amine]
IC50 (ALK; ALK Kinase Inhibition): < 100 nM
IC50 (JAK2; JAK2 Kinase Inhibition): 100 to 1000 nM

CC(=O)N1CCCC(C)(C)c2ccc(Nc3ncc4ccc(-c5ccccc5N(C)S(C)(=O)=O)n4n3)cc21 [Example 1366, N-{2-[2-(1-Acetyl-5,5-dimethyl-2,3,4,5-tetrahydro-1H-benzo[b]azepin-8-ylamino)-pyrrolo[2,1-f][1,2,4]triazin-7-yl]-phenyl}-N-methyl-methanesulfonamide]
IC50 (ALK; ALK Kinase Inhibition): 100 to 1000 nM
IC50 (JAK2; JAK2 Kinase Inhibition): < 100 nM

COc1ccc(Cl)cc1-c1ccc2cnc(-n3cnc4cnccc43)nn12 [Example 323, 1-[7-(5-Chloro-2-methoxy-phenyl)-pyrrolo[2,1-f][1,2,4]triazin-2-yl]-1H-imidazo[4,5-c]pyridine]
IC50 (ALK; ALK Kinase Inhibition): 1000 to 10000 nM
IC50 (JAK2; JAK2 Kinase Inhibition): 100 to 1000 nM

NC(=O)CN1CCC(c2ccc(Nc3ncc4ccc(-c5cccc6cccnc56)n4n3)cc2)CC1 [Example 514, 2-{4-[4-(7-Quinolin-8-yl-pyrrolo[2,1-f][1,2,4]triazin-2-ylamino)-phenyl]-piperidin-1-yl}-acetamide]
IC50 (ALK; [1]): 1000 to 10000 nM
IC50 (JAK2; [2]): < 100 nM

Cn1cnc2ccc(Nc3ncc4ccc(-c5cccc(S(=O)(=O)CC6CC6)c5)n4n3)cc21 [Example 1320, [7-(3-Cyclopropylmethanesulfonyl-phenyl)-pyrrolo[2,1-f][1,2,4]triazin-2-yl]-(3-methyl-3H-benzimidazol-5-yl)-amine]
IC50 (ALK; [1]): 100 to 1000 nM
IC50 (JAK2; [2]): < 100 nM

COc1ccc(-c2ccc3cnc(Nc4ccc(N5CCN(C)CC5)nc4)nn23)cn1 [Example 1109, [7-(6-Methoxy-pyridin-3-yl)-pyrrolo[2,1-f][1,2,4]triazin-2-yl]-[6-(4-methyl-piperazin-1-yl)-pyridin-3-yl]-amine]
IC50 (ALK; [1]): 100 to 1000 nM
IC50 (JAK2; [2]): < 100 nM

COc1ccc(-c2ccc3cnc(Nc4ccc(C5CNCCN5)cc4)nn23)cn1 (stereo not shown) [Example 1529, [7-(6-Methoxy-pyridin-3-yl)-pyrrolo[2,1-f][1,2,4]triazin-2-yl]-(4-piperazin-2-yl-phenyl)-amine]
IC50 (ALK; ALK Kinase Inhibition): 100 to 1000 nM
IC50 (JAK2; JAK2 Kinase Inhibition): < 100 nM

CS(=O)(=O)Nc1ccccc1-c1ccc2cnc(Nc3cccc(N4CCOCC4)c3)nn12 [Example 431, N-{2-[2-(3-Morpholin-4-yl-phenylamino)-pyrrolo[2,1-f][1,2,4]triazin-7-yl]-phenyl}-methanesulfonamide]
IC50 (ALK; ALK Kinase Inhibition): 1000 to 10000 nM
IC50 (JAK2; JAK2 Kinase Inhibition): < 100 nM

CC(C)(C)NS(=O)(=O)c1cccc(-c2ccc3cnc(Nc4ccc(N5CCOCC5)c(F)c4)nn23)c1 [Example 1395, N-tert-Butyl-3-[2-(3-fluoro-4-morpholin-4-yl-phenylamino)-pyrrolo[2,1-f][1,2,4]triazin-7-yl]-benzenesulfonamide]
IC50 (ALK; ALK Kinase Inhibition): 100 to 1000 nM
IC50 (JAK2; JAK2 Kinase Inhibition): < 100 nM

CNC(=O)c1ccc(-c2ccc3cnc(Nc4cccc(N5CCOCC5)c4)nn23)cc1 [Example 194, N-Methyl-4-[2-(3-morpholin-4-yl-phenylamino)-pyrrolo[2,1-f][1,2,4]triazin-7-yl]-benzamide]
IC50 (ALK; ALK Kinase Inhibition): 100 to 1000 nM
IC50 (JAK2; JAK2 Kinase Inhibition): < 100 nM

CN1CCN(C)C(c2cccc(Nc3ncc4ccc(-c5cccc(S(=O)(=O)N6CCCC6)c5)n4n3)c2)C1=O (stereo not shown) [Example 1079, 1,4-Dimethyl-3-(3-{7-[3-(pyrrolidine-1-sulfonyl)-phenyl]-pyrrolo[2,1-f][1,2,4]triazin-2-ylamino}-phenyl)-piperazin-2-one]
IC50 (ALK; [1]): 1000 to 10000 nM
IC50 (JAK2; [2]): < 100 nM

CN(c1ccccc1-c1ccc2cnc(Nc3ccc(N4CCOCC4)cn3)nn12)S(C)(=O)=O [Example 1176, N-Methyl-N-{2-[2-(5-morpholin-4-yl-pyridin-2-ylamino)-pyrrolo[2,1-f][1,2,4]triazin-7-yl]-phenyl}-methanesulfonamide]
IC50 (ALK; [1]): 1000 to 10000 nM
IC50 (JAK2; [2]): < 100 nM

COc1cccc(F)c1-c1ccc2cnc(Nc3ccc(C4CCN(CC(N)=O)CC4)cc3)nn12 [Example 1353, 2-(4-{4-[7-(2-Fluoro-6-methoxy-phenyl)-pyrrolo[2,1-f][1,2,4]triazin-2-ylamino]-phenyl}-piperidin-1-yl)-acetamide]
IC50 (ALK; [1]): < 100 nM
IC50 (JAK2; [2]): < 100 nM

CS(=O)(=O)N1CC=C(c2ccc3cnc(Nc4ccc(N5CCOCC5)cc4)nn23)CC1 [Example 1129, [7-(1-Methanesulfonyl-1,2,3,6-tetrahydro-pyridin-4-yl)-pyrrolo[2,1-f][1,2,4]triazin-2-yl]-(4-morpholin-4-yl-phenyl)-amine]
IC50 (ALK; [1]): 1000 to 10000 nM
IC50 (JAK2; [2]): < 100 nM

CN1CCN(c2ccc(Nc3ncc4ccc(NCc5ccncc5)n4n3)cc2)CC1 [Example 1165, N(2)-[4-(4-Methyl-piperazin-1-yl)-phenyl]-N(7)-pyridin-4-ylmethyl-pyrrolo[2,1-f][1,2,4]triazine-2,7-diamine]
IC50 (ALK; [1]): 1000 to 10000 nM
IC50 (JAK2; [2]): < 100 nM

COc1ccccc1-c1ccc2cnc(Nc3ccc(N4CCN(CC(N)=O)CC4)c(F)c3)nn12 [Example 1416, 2-(4-{2-Fluoro-4-[7-(2-methoxy-phenyl)-pyrrolo[2,1-f][1,2,4]triazin-2-ylamino]-phenyl}-piperazin-1-yl)-acetamide]
IC50 (ALK; ALK Kinase Inhibition): 100 to 1000 nM
IC50 (JAK2; JAK2 Kinase Inhibition): < 100 nM
